# Measured values from the kinase profiling compilation of Christmann-Franck et al. (2016).
# Legend:
# Experiment in all cases: KINOMEscan competition binding
# Details in all cases: compound 10.0 µM
# MYLK3 (human) = MYLK3 (human) (UniProt Q32MK0)
# MAP3K10 (human) = MAP3K10 (human) (UniProt Q02779)
# RPS6KA5 KD1 (human) = RPS6KA5 KD1 (human) (UniProt O75582)
# RPS6KA1 KD1 (human) = RPS6KA1 KD1 (human) (UniProt Q15418)
# MAP4K3 (human) = MAP4K3 (human) (UniProt Q8IVH8)
# MELK (human) = MELK (human) (UniProt Q14680)
# ACVR2A (human) = ACVR2A (human) (UniProt P27037)
# IRAK4 (human) = IRAK4 (human) (UniProt Q9NWZ3)
# RPS6KA2 KD1 (human) = RPS6KA2 KD1 (human) (UniProt Q15349)
# TNIK (human) = TNIK (human) (UniProt Q9UKE5)
# CSNK1E (human) = CSNK1E (human) (UniProt P49674)
# NEK3 (human) = NEK3 (human) (UniProt P51956)
# Chain of NEK3 (human) (P51956 whole entry, looked up): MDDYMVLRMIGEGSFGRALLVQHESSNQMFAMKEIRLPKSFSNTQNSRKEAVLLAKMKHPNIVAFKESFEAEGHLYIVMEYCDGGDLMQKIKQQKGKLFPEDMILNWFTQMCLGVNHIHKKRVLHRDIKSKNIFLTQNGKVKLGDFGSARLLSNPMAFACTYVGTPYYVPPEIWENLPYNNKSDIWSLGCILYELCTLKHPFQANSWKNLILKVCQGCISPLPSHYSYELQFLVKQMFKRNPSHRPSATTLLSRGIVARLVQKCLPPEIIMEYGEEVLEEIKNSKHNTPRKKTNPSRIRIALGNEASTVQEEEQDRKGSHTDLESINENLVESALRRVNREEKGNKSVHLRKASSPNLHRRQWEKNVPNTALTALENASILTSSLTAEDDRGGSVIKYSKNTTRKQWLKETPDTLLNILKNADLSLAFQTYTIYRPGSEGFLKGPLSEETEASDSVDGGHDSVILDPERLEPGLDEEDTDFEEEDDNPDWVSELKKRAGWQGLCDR
# CDK8 (human) = CDK8 (human) (UniProt P49336)
# CAMK2A (human) = CAMK2A (human) (UniProt Q9UQM7)
# Chain of CAMK2A (human) (Q9UQM7 whole entry, looked up): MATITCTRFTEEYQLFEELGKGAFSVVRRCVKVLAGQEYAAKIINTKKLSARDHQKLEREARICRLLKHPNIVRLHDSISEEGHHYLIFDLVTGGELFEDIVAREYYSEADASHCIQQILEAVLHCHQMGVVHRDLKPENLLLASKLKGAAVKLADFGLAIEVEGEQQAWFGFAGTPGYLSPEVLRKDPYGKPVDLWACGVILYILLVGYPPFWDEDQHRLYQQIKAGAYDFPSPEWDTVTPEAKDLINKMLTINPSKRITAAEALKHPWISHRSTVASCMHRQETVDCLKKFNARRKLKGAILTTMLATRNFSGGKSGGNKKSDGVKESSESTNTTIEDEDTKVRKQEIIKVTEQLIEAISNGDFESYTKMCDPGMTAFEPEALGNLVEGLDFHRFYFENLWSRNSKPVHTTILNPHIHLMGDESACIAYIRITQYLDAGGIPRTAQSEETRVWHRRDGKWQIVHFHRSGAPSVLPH
# CDKL1 (human) = CDKL1 (human) (UniProt Q00532)
# Chain of CDKL1 (human) (Q00532 whole entry, looked up): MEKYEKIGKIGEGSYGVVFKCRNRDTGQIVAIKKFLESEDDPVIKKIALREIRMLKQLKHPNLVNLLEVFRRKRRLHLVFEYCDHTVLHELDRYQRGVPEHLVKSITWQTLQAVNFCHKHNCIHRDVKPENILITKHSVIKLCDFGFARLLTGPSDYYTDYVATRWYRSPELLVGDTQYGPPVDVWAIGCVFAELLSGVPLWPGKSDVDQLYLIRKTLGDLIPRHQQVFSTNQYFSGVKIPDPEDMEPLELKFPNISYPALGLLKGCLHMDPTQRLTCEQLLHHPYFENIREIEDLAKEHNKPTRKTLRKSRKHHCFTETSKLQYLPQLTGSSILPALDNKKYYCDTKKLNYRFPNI
# DCLK1 (human) = DCLK1 (human) (UniProt O15075)
# CDK11B (human) = CDK11B (human) (UniProt P21127)
# Chain of CDK11B (human) (P21127 whole entry, looked up): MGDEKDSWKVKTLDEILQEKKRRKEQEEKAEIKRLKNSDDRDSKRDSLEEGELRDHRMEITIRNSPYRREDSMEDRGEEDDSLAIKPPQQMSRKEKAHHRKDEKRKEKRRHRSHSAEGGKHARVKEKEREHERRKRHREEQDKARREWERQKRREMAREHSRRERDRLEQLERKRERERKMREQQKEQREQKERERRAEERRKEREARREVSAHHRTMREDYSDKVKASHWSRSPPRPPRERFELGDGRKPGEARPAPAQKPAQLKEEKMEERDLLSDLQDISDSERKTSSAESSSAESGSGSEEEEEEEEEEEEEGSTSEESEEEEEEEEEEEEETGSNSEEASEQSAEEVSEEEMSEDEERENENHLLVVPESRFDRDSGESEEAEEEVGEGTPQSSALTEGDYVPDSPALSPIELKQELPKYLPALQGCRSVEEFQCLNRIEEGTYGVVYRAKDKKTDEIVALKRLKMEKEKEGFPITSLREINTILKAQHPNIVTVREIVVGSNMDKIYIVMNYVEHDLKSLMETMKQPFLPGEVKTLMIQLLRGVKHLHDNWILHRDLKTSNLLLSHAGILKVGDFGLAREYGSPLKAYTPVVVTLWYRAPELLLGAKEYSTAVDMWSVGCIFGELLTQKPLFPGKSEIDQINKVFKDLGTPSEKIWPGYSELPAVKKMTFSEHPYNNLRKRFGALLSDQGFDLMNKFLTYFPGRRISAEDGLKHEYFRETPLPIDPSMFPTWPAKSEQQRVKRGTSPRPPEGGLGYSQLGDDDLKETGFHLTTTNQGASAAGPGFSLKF
# PIP5K1A (human) = PIP5K1A (human) (UniProt Q99755)
# LIMK2 (human) = LIMK2 (human) (UniProt P53671)
# DYRK1B (human) = DYRK1B (human) (UniProt Q9Y463)
# TXK (human) = TXK (human) (UniProt P42681)
# AKT3 (human) = AKT3 (human) (UniProt Q9Y243)
# STK24 (human) = STK24 (human) (UniProt Q9Y6E0)
# STK39 (human) = STK39 (human) (UniProt Q9UEW8)
# EPHA4 (human) = EPHA4 (human) (UniProt P54764)
# [1] = system: FLT3 (human), P36888 [K663Q]
# [2] = molecular target: JAK1 JH2 pseudokinase (human) (UniProt P23458)
# Chain of JAK1 JH2 pseudokinase (human) (P23458 whole entry, looked up): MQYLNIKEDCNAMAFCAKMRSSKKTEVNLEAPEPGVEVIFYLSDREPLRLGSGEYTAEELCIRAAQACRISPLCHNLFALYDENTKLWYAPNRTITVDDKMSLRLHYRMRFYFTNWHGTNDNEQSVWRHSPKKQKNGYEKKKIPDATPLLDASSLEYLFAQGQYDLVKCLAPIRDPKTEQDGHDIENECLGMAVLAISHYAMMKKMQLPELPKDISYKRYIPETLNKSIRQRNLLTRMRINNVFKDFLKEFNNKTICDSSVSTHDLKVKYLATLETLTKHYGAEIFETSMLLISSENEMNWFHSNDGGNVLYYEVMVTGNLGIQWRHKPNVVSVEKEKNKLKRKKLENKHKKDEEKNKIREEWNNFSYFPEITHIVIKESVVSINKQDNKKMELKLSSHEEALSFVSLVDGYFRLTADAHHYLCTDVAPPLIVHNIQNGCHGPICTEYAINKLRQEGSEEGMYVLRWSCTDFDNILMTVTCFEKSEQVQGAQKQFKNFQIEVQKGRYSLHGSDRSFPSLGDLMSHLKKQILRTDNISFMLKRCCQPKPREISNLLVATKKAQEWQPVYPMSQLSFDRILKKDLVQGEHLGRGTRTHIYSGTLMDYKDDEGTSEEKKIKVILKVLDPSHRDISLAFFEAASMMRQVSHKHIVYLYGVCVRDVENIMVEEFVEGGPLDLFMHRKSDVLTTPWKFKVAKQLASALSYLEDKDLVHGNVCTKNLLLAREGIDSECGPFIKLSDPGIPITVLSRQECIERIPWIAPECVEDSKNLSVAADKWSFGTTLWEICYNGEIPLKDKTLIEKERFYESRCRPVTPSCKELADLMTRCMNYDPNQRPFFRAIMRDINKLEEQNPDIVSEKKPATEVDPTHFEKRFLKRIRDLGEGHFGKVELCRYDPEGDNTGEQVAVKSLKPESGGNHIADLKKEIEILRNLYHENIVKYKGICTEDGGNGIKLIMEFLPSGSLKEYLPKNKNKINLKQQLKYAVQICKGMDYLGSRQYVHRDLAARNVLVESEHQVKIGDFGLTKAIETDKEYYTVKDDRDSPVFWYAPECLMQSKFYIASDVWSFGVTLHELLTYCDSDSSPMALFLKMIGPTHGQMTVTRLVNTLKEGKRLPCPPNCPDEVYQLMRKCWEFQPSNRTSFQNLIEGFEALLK
# PI4KB (human) = PI4KB (human) (UniProt Q9UBF8)
# [3] = system: FLT3 (human), P36888 [D835Y]
# PAK1 (human) = PAK1 (human) (UniProt Q13153)
# PIM2 (human) = PIM2 (human) (UniProt Q9P1W9)
# CRK2 (P.falciparum) = CRK2 (P.falciparum) (UniProt P61075)
# NEK7 (human) = NEK7 (human) (UniProt Q8TDX7)
# Chain of NEK7 (human) (Q8TDX7 whole entry, looked up): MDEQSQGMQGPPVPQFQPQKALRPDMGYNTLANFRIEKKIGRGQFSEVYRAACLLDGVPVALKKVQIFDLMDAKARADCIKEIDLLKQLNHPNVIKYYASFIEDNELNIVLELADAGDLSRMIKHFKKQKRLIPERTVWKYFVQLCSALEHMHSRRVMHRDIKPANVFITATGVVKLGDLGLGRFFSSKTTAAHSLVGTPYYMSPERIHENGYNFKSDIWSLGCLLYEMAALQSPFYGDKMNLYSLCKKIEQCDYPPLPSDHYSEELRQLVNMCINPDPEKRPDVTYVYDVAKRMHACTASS
# FGFR2 (human) = FGFR2 (human) (UniProt P21802)
# GSK3B (human) = GSK3B (human) (UniProt P49841)
# [4] = system: FLT3 (human), P36888 [D835H]
# EPHA1 (human) = EPHA1 (human) (UniProt P21709)
# PRKCI (human) = PRKCI (human) (UniProt P41743)
# HCK (human) = HCK (human) (UniProt P08631)
# Chain of HCK (human) (P08631 whole entry, looked up): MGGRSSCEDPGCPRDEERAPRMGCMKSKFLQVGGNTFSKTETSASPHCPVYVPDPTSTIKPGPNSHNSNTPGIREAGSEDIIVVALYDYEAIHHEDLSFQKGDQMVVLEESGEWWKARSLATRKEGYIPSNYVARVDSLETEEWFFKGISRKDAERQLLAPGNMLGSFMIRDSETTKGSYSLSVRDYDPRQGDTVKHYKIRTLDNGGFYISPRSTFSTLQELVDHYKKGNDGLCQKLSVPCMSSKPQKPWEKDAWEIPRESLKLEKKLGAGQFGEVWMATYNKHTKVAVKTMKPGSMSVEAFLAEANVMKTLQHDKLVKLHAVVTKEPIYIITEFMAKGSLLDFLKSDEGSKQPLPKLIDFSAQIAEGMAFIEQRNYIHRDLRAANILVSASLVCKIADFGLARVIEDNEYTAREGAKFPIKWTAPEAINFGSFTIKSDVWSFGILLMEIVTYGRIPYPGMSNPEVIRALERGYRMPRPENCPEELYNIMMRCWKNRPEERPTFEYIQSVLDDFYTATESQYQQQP
# TIE1 (human) = TIE1 (human) (UniProt P35590)
# INSRR (human) = INSRR (human) (UniProt P14616)
# CAMK2D (human) = CAMK2D (human) (UniProt Q13557)
# Chain of MAP4K3 (human) (Q8IVH8 whole entry, looked up): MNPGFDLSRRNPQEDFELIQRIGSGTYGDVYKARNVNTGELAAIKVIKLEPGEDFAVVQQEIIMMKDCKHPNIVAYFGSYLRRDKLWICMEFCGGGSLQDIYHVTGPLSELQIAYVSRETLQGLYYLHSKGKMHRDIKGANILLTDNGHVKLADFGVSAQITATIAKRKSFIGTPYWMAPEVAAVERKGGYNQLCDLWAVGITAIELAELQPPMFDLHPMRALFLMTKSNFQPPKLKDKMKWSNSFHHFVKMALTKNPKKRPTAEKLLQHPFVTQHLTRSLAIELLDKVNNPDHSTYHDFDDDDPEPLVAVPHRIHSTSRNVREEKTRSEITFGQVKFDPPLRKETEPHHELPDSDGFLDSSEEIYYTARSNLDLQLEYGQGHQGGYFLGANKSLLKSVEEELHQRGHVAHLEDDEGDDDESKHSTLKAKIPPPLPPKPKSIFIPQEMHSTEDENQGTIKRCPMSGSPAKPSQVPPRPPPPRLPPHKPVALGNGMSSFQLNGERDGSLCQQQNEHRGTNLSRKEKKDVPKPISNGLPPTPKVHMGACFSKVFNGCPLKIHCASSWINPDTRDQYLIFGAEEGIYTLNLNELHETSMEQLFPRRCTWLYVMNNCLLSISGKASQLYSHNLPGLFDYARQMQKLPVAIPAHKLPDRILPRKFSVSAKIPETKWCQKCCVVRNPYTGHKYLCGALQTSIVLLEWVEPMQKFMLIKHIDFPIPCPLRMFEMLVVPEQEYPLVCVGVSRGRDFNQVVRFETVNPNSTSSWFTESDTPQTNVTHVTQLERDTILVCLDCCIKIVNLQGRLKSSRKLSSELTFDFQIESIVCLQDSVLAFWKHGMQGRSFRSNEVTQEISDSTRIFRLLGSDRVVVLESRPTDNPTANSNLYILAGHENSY
smiles,measurement,setting,value
Cc1cc([C@@H](C)Nc2ccccc2C(=O)O)c2nc(N3CCOCC3)cc(=O)n2c1,"kinase still bound, per cent of control",MYLK3 (human),82%
same,"kinase still bound, per cent of control",MAP3K10 (human),96%
same,"kinase still bound, per cent of control",RPS6KA5 KD1 (human),100%
same,"kinase still bound, per cent of control",RPS6KA1 KD1 (human),67%
same,"kinase still bound, per cent of control",MAP4K3 (human),99%
same,"kinase still bound, per cent of control",MELK (human),100%
same,"kinase still bound, per cent of control",ACVR2A (human),95%
same,"kinase still bound, per cent of control",IRAK4 (human),100%
same,"kinase still bound, per cent of control",RPS6KA2 KD1 (human),100%
same,"kinase still bound, per cent of control",TNIK (human),97%
same,"kinase still bound, per cent of control",CSNK1E (human),92%
same,"kinase still bound, per cent of control",NEK3 (human),65%
same,"kinase still bound, per cent of control",CDK8 (human),100%
same,"kinase still bound, per cent of control",CAMK2A (human),66%
same,"kinase still bound, per cent of control",CDKL1 (human),100%
same,"kinase still bound, per cent of control",DCLK1 (human),100%
same,"kinase still bound, per cent of control",CDK11B (human),100%
same,"kinase still bound, per cent of control",PIP5K1A (human),100%
same,"kinase still bound, per cent of control",LIMK2 (human),100%
same,"kinase still bound, per cent of control",DYRK1B (human),100%
same,"kinase still bound, per cent of control",TXK (human),100%
same,"kinase still bound, per cent of control",AKT3 (human),80%
same,"kinase still bound, per cent of control",STK24 (human),85%
same,"kinase still bound, per cent of control",STK39 (human),58%
same,"kinase still bound, per cent of control",EPHA4 (human),91%
same,"kinase still bound, per cent of control",[1],15%
same,"kinase still bound, per cent of control",[2],100%
same,"kinase still bound, per cent of control",PI4KB (human),89%
same,"kinase still bound, per cent of control",[3],24%
same,"kinase still bound, per cent of control",PAK1 (human),97%
same,"kinase still bound, per cent of control",PIM2 (human),83%
same,"kinase still bound, per cent of control",CRK2 (P.falciparum),92%
same,"kinase still bound, per cent of control",NEK7 (human),98%
same,"kinase still bound, per cent of control",FGFR2 (human),100%
same,"kinase still bound, per cent of control",GSK3B (human),100%
same,"kinase still bound, per cent of control",[4],32%
same,"kinase still bound, per cent of control",EPHA1 (human),100%
same,"kinase still bound, per cent of control",PRKCI (human),94%
same,"kinase still bound, per cent of control",HCK (human),60%
same,"kinase still bound, per cent of control",TIE1 (human),100%
same,"kinase still bound, per cent of control",INSRR (human),100%
same,"kinase still bound, per cent of control",CAMK2D (human),100%
